Each structure is given as a SMILES string.

Sequence of Cytochrome P450 2E1 (P05181 whole entry): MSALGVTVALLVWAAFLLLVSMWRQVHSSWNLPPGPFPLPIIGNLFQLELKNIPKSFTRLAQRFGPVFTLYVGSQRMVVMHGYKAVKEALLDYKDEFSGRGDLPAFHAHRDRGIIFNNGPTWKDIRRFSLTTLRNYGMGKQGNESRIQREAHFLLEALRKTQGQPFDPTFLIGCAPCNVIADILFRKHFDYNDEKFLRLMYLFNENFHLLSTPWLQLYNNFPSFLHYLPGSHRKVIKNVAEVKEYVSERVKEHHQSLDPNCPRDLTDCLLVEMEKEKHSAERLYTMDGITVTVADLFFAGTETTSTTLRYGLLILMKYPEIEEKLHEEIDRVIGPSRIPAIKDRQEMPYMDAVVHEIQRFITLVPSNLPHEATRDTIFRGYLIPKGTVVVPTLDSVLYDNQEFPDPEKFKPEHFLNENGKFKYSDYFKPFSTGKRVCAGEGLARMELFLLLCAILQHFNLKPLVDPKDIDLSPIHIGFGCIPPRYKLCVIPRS
Sequence of 5-hydroxytryptamine receptor 2B (P41595 whole entry): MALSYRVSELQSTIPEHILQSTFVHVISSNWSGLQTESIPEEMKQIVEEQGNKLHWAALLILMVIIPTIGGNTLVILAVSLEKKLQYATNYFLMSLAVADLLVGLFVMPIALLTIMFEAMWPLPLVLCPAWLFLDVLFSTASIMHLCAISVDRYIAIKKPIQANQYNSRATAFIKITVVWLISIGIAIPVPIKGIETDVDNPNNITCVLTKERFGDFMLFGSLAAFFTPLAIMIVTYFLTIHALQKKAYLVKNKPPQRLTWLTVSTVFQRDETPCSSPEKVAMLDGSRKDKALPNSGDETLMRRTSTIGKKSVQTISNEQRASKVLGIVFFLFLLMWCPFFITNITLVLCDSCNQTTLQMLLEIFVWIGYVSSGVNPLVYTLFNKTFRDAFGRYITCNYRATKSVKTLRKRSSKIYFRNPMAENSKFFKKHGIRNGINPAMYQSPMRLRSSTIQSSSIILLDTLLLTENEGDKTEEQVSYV
Sequence of Cytochrome P450 2D6 (P10635 whole entry): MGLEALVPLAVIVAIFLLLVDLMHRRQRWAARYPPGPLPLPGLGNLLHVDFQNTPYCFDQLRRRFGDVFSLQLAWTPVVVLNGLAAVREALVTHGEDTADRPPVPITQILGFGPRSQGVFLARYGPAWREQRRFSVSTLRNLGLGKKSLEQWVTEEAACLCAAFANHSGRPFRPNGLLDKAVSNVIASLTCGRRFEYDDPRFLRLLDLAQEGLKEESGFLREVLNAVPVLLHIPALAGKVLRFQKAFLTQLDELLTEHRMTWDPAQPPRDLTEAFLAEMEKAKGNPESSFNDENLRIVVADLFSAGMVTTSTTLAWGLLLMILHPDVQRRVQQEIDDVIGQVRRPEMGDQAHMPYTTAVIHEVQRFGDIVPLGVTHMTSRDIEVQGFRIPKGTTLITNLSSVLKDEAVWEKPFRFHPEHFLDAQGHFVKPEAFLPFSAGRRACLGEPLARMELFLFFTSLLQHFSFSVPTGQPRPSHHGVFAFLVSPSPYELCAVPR
Sequence of Beta-3 adrenergic receptor (P13945 whole entry): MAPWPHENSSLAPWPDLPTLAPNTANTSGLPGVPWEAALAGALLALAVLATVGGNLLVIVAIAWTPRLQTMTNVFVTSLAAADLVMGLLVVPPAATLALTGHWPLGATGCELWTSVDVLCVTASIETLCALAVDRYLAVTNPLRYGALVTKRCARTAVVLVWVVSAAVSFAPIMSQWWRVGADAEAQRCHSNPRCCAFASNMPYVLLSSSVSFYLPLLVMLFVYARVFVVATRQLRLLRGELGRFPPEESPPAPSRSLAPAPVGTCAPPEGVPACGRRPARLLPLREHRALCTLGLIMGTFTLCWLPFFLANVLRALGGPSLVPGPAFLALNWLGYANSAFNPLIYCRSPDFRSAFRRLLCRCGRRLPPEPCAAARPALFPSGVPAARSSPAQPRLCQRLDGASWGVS

Test system in the first data set: not listed separately
Description: DRUGMATRIX: Calcium Channel Type L, Benzothiazepine radioligand binding (ligand: [3H] Diltiazem). In kind it is cell membranes, Rattus norvegicus, Wistar, Brain, Membrane. The conditions noted are these: Not Active = under 50% inhibition at 10 µM.
For the compound `O=C1CCc2cc(OCCCCc3nnnn3C3CCCCC3)ccc2N1` [CILOSTAZOL], the IC50 entry is given as “Not Active” and the Ki result is listed as “Not Active”.

On to `CC(C)(S)[C@@H](N)C(=O)O` [PENICILLAMINE], for which the IC50 result is reported as “Not Active” and the Ki result is recorded as “Not Active”.

Turning to `C=C(C)[C@@H]1[C@H]2OC(=O)[C@@H]1[C@]1(O)C[C@H]3O[C@]34C(=O)O[C@H]2[C@]14C` [PICROTOXININ], the IC50 result was “Not Active” and the Ki entry is reported as “Not Active”.

The target in a further data set is T1, Adenosine receptor A3 (Homo sapiens, UniProt P0DMS8).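 Note: radioligand binding assay with AB-MECA serving as the labeled ligand; in other assays of this panel Not Active means under 50% inhibition at 10 µM.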
T1 sequence (P0DMS8 whole entry): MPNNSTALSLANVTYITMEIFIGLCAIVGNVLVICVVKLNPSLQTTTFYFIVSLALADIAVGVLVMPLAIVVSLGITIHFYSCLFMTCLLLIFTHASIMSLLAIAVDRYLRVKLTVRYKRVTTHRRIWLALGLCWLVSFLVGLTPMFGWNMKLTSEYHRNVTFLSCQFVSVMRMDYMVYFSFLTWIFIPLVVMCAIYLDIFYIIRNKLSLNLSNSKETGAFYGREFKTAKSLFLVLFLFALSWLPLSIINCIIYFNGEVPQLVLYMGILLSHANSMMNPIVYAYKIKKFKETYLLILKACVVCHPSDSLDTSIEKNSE
Assay: not given
It counts as cell membranes, CHO-K1, Membrane. Particulars: cho-k1.
As for `O=C1CCc2cc(OCCCCc3nnnn3C3CCCCC3)ccc2N1` [CILOSTAZOL], the half-inhibitory concentration (IC50) entry is reported as “Not Active”.

Turning to `CC(C)(S)[C@@H](N)C(=O)O` [PENICILLAMINE], the IC50 result is given as “Not Active”.

Turning to `C=C(C)[C@@H]1[C@H]2OC(=O)[C@@H]1[C@]1(O)C[C@H]3O[C@]34C(=O)O[C@H]2[C@]14C` [PICROTOXININ], the IC50 entry was “Not Active”.

Another data set addresses Cytochrome P450 2D6 (Homo sapiens, UniProt P10635).
Assay: not given
The conditions noted are these: bti-tn-5b1-4.
Consider `O=C1CCc2cc(OCCCCc3nnnn3C3CCCCC3)ccc2N1` [CILOSTAZOL], for which the IC50 entry is given as “Not Active” and the Ki result is listed as “Not Active”.

On to `CC(C)(S)[C@@H](N)C(=O)O` [PENICILLAMINE], for which the IC50 result is given as “Not Active” and the Ki result is “Not Active”.

As for `C=C(C)[C@@H]1[C@H]2OC(=O)[C@@H]1[C@]1(O)C[C@H]3O[C@]34C(=O)O[C@H]2[C@]14C` [PICROTOXININ], the IC50 result is listed as “Not Active” and the Ki result is on record as “Not Active”.

Another data set deals with Histamine H2 receptor (Homo sapiens, UniProt P25021).
Sequence of Histamine H2 receptor (P25021 whole entry): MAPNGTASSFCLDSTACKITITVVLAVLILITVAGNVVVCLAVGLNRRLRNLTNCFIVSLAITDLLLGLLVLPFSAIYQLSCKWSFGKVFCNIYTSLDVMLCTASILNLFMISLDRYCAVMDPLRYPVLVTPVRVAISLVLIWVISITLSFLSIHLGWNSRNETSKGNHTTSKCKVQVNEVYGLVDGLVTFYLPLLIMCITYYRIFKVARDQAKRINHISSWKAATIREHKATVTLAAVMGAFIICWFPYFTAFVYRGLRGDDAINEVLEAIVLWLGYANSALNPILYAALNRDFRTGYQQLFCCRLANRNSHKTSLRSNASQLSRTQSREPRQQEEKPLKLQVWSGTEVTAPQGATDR
Assay: not given
In kind it is cell membranes, CHO-K1, Membrane. The conditions noted are these: cho-k1.
On to `O=C1CCc2cc(OCCCCc3nnnn3C3CCCCC3)ccc2N1` [CILOSTAZOL], for which the IC50 entry is “Not Active”.

On to `CC(C)(S)[C@@H](N)C(=O)O` [PENICILLAMINE], for which the IC50 entry is “Not Active”.

As for `C=C(C)[C@@H]1[C@H]2OC(=O)[C@@H]1[C@]1(O)C[C@H]3O[C@]34C(=O)O[C@H]2[C@]14C` [PICROTOXININ], the IC50 result is reported as “Not Active”.

The target in the next data set is D(1A) dopamine receptor (Homo sapiens, UniProt P21728). Description: DRUGMATRIX: Dopamine D1 radioligand binding (ligand: [3H] SCH-23390). The conditions noted are these: cho; Not Active = under 50% inhibition at 10 µM. In kind it is cell membranes, CHO, Membrane.
Sequence of D(1A) dopamine receptor (P21728 whole entry): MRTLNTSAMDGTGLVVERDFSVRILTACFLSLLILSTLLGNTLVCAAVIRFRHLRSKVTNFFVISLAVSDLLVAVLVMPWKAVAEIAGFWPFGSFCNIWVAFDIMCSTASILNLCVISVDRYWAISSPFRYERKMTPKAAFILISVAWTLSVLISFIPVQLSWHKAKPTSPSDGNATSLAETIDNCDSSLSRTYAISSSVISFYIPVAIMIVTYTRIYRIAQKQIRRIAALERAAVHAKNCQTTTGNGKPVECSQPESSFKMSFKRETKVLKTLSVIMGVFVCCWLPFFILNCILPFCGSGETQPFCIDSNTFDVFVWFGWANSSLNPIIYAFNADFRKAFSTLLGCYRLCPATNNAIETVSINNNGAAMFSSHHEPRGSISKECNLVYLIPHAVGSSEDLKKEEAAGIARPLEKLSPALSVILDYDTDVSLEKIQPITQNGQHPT
Regarding `O=C1CCc2cc(OCCCCc3nnnn3C3CCCCC3)ccc2N1` [CILOSTAZOL], the IC50 entry is “Not Active”.

Take `CC(C)(S)[C@@H](N)C(=O)O` [PENICILLAMINE]: the IC50 result is “Not Active”.

As for `C=C(C)[C@@H]1[C@H]2OC(=O)[C@@H]1[C@]1(O)C[C@H]3O[C@]34C(=O)O[C@H]2[C@]14C` [PICROTOXININ], the IC50 result was “Not Active”.

In the next data set the target is T2, C-X-C chemokine receptor type 2 (Homo sapiens, UniProt P25025). Note: in other assays of this panel Not Active means under 50% inhibition at 10 µM.
T2 sequence (P25025 whole entry): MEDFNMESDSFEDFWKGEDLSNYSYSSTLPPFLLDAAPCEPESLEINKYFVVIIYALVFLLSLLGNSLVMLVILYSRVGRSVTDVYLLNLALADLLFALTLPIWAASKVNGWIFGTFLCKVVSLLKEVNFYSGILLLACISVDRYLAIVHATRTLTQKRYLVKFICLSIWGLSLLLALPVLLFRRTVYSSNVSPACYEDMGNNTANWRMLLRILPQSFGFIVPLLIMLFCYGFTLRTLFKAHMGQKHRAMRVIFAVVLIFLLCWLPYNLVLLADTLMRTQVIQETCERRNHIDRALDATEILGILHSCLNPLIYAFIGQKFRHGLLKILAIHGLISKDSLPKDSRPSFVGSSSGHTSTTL
Assay: not given
It counts as cell membranes, Membrane. Particulars: cho-k1.
For the compound `O=C1CCc2cc(OCCCCc3nnnn3C3CCCCC3)ccc2N1` [CILOSTAZOL], the IC50 entry is on record as “Not Active”.

`CC(C)(S)[C@@H](N)C(=O)O` [PENICILLAMINE]: the IC50 result is “Not Active”.

On to `C=C(C)[C@@H]1[C@H]2OC(=O)[C@@H]1[C@]1(O)C[C@H]3O[C@]34C(=O)O[C@H]2[C@]14C` [PICROTOXININ], for which the IC50 result was “Not Active”.

For a further data set, the target named is T3, Polyunsaturated fatty acid lipoxygenase ALOX15 (Oryctolagus cuniculus, UniProt P12530).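 Note: inhibition of 15-lipoxygenase enzyme activity measured with linoleic acid as the substrate; in other assays of this panel Not Active means under 50% inhibition at 10 µM.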
T3 sequence (P12530 whole entry): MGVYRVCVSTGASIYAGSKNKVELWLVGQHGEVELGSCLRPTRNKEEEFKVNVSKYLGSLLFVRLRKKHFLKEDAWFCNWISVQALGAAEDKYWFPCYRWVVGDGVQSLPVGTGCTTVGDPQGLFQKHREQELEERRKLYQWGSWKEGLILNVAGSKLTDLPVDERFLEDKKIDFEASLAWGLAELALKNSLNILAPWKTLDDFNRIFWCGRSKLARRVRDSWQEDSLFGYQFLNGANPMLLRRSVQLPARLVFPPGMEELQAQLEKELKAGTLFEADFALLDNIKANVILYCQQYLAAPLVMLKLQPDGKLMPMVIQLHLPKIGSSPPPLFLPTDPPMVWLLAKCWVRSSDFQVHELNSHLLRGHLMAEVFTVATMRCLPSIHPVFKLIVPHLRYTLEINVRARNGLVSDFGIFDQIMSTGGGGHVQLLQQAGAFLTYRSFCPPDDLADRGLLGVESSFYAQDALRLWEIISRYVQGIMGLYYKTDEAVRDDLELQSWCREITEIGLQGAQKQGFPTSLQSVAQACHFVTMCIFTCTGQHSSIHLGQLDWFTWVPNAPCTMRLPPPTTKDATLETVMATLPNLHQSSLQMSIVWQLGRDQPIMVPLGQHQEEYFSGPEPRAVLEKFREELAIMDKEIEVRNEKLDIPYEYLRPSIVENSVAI
Kind of data set: biochemical. It counts as tissue-based, Reticulocytes. The conditions noted are these: reticulocytes.
For `O=C1CCc2cc(OCCCCc3nnnn3C3CCCCC3)ccc2N1` [CILOSTAZOL], the IC50 entry was “Not Active”.

As to `CC(C)(S)[C@@H](N)C(=O)O` [PENICILLAMINE], the IC50 result was “Not Active”.

In the case of `C=C(C)[C@@H]1[C@H]2OC(=O)[C@@H]1[C@]1(O)C[C@H]3O[C@]34C(=O)O[C@H]2[C@]14C` [PICROTOXININ], the concentration for half-maximal inhibition (IC50) result was “Not Active”.

The target in the next data set is T4, Alpha-1B adrenergic receptor (Rattus norvegicus, UniProt P15823).
T4 sequence (P15823 whole entry): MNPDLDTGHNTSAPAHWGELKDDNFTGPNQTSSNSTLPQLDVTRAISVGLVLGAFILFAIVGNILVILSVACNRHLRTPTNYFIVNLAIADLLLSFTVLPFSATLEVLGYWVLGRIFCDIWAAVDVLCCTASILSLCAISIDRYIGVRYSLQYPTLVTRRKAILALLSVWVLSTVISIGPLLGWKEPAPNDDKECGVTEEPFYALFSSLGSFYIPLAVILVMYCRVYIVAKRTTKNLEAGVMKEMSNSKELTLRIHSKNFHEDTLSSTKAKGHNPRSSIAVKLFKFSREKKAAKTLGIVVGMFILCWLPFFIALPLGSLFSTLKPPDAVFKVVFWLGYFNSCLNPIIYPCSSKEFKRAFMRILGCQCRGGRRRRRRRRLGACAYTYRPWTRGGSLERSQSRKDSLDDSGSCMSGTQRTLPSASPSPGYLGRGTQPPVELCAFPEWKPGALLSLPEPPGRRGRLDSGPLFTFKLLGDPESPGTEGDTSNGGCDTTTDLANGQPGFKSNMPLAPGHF
Kind of data set: DRUGMATRIX: Alpha-1B adrenergic receptor radioligand binding (ligand: prazosin). Particulars: Not Active = under 50% inhibition at 10 µM. It counts as cell membranes, Wistar, Liver, Membrane.
Turning to `O=C1CCc2cc(OCCCCc3nnnn3C3CCCCC3)ccc2N1` [CILOSTAZOL], the IC50 result was “Not Active”.

Turning to `CC(C)(S)[C@@H](N)C(=O)O` [PENICILLAMINE], the IC50 entry is given as “Not Active”.

Take `C=C(C)[C@@H]1[C@H]2OC(=O)[C@@H]1[C@]1(O)C[C@H]3O[C@]34C(=O)O[C@H]2[C@]14C` [PICROTOXININ]: the IC50 result is listed as “Not Active”.

Another data set addresses Cytochrome P450 2E1 (Homo sapiens, UniProt P05181).
Assay: not given
The conditions noted are these: bti-tn-5b1-4.
`O=C1CCc2cc(OCCCCc3nnnn3C3CCCCC3)ccc2N1` [CILOSTAZOL]: the IC50 result was “Not Active” and the Ki entry is recorded as “Not Active”.

On to `CC(C)(S)[C@@H](N)C(=O)O` [PENICILLAMINE], for which the IC50 result is reported as “Not Active” and the Ki entry is recorded as “Not Active”.

In the case of `C=C(C)[C@@H]1[C@H]2OC(=O)[C@@H]1[C@]1(O)C[C@H]3O[C@]34C(=O)O[C@H]2[C@]14C` [PICROTOXININ], the IC50 entry is listed as “Not Active” and the Ki entry was “Not Active”.

Test system in a further data set: not listed separately
Kind of data set: DRUGMATRIX: GABAA, Chloride Channel, TBOB radioligand binding (ligand: [3H] TBOB). In kind it is cell membranes, Rattus norvegicus, Wistar, Cerebral cortex, Membrane. The conditions noted are these: Not Active = under 50% inhibition at 10 µM.
For the compound `O=C1CCc2cc(OCCCCc3nnnn3C3CCCCC3)ccc2N1` [CILOSTAZOL], the IC50 entry is listed as “Not Active” and the Ki result is on record as “Not Active”.

`CC(C)(S)[C@@H](N)C(=O)O` [PENICILLAMINE]: the IC50 result is “Not Active” and the Ki entry was “Not Active”.

The same data set, now with this note: Not Active = under 50% inhibition at 10 µM; read-out: IC50.
On to `C=C(C)[C@@H]1[C@H]2OC(=O)[C@@H]1[C@]1(O)C[C@H]3O[C@]34C(=O)O[C@H]2[C@]14C` [PICROTOXININ], for which the IC50 came to 368 nM.

Still in this data set, the particulars now being: Not Active = under 50% inhibition at 10 µM; read-out: Ki.
As to `C=C(C)[C@@H]1[C@H]2OC(=O)[C@@H]1[C@]1(O)C[C@H]3O[C@]34C(=O)O[C@H]2[C@]14C` [PICROTOXININ], the Ki came out at 330 nM.

A further data set has as its target Beta-3 adrenergic receptor (Homo sapiens, UniProt P13945). Description: DRUGMATRIX: Adrenergic beta3 radioligand binding (ligand: [125I] Cyanopindolol). The conditions noted are these: hek293; Not Active = under 50% inhibition at 10 µM. In kind it is cell membranes, HEK293, Membrane.
On to `O=C1CCc2cc(OCCCCc3nnnn3C3CCCCC3)ccc2N1` [CILOSTAZOL], for which the IC50 result was “Not Active”.

With `CC(C)(S)[C@@H](N)C(=O)O` [PENICILLAMINE], the IC50 entry is on record as “Not Active”.

With `C=C(C)[C@@H]1[C@H]2OC(=O)[C@@H]1[C@]1(O)C[C@H]3O[C@]34C(=O)O[C@H]2[C@]14C` [PICROTOXININ], the IC50 entry is listed as “Not Active”.

Another data set concerns the target 5-hydroxytryptamine receptor 2B (Homo sapiens, UniProt P41595). Note: in other assays of this panel Not Active means under 50% inhibition at 10 µM.
Assay: not given
In kind it is cell membranes, CHO-K1, Membrane. The conditions noted are these: cho-k1.
For the compound `O=C1CCc2cc(OCCCCc3nnnn3C3CCCCC3)ccc2N1` [CILOSTAZOL], the IC50 entry is “Not Active”.

With `CC(C)(S)[C@@H](N)C(=O)O` [PENICILLAMINE], the half-inhibitory concentration (IC50) result is “Not Active”.

With `C=C(C)[C@@H]1[C@H]2OC(=O)[C@@H]1[C@]1(O)C[C@H]3O[C@]34C(=O)O[C@H]2[C@]14C` [PICROTOXININ], the IC50 entry is “Not Active”.

For the next data set, the target named is 5-hydroxytryptamine receptor 6 (Homo sapiens, UniProt P50406). Note: in other assays of this panel Not Active means under 50% inhibition at 10 µM.
Sequence of 5-hydroxytryptamine receptor 6 (P50406 whole entry): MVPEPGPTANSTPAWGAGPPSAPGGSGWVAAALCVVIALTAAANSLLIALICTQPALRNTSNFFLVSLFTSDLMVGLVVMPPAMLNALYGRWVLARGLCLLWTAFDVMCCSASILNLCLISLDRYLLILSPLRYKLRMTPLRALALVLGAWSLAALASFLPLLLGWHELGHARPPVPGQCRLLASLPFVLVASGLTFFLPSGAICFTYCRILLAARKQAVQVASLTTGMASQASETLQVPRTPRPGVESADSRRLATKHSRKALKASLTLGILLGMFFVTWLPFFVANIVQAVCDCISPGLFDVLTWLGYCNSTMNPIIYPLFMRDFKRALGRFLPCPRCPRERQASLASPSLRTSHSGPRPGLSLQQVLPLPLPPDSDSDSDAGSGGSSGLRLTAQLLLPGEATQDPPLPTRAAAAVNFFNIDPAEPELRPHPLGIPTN
Assay: not given
In kind it is cell membranes, HeLa, Membrane. Particulars: hela.
On to `O=C1CCc2cc(OCCCCc3nnnn3C3CCCCC3)ccc2N1` [CILOSTAZOL], for which the IC50 result is “Not Active”.

Consider `CC(C)(S)[C@@H](N)C(=O)O` [PENICILLAMINE], for which the IC50 entry is on record as “Not Active”.

As to `C=C(C)[C@@H]1[C@H]2OC(=O)[C@@H]1[C@]1(O)C[C@H]3O[C@]34C(=O)O[C@H]2[C@]14C` [PICROTOXININ], the IC50 result is “Not Active”.

These data come from ChEMBL document CHEMBL1909046, “DrugMatrix in vitro pharmacology data”.
